Measurements taken from PMC5358388 (Proceedings of the National Academy of Sciences of the …, 2017).
Like-named read-outs stand apart in the source and are kept apart here.

Experiments:
[1] = tested on: cytosolic labile heme in P. falciparum; type: cell-based, Plasmodium falciparum
P. falciparum = assay: Growth inhibition of P. falciparum lines by chloroquine; type: cell-based; conditions: Plasmodium falciparum

Structure (SMILES) | change in labile heme concentration, treated vs untreated parasites ([1]; pyrimethamine 125 and 500 nM, 32 h) | average Δ[heme], increase in labile heme concentration vs untreated control ([1]; 60 nM chloroquine, four independent experiments, P = 0.002) | lower bound on labile cytosolic heme level ([1]; 60 nM chloroquine, assuming no chloroquine in the cytosol) [µM] | upper bound on labile cytosolic heme level ([1]; 60 nM chloroquine, assuming ≥1:1 chloroquine:heme in the cytosol) [µM] | IC50 (P. falciparum; read-out: chloroquine IC50 (95% CI), parasites expressing CH49Y) [nM] | IC50 (P. falciparum; read-out: chloroquine IC50 (95% CI), parental NF54attB line) [nM]
CCc1nc(N)nc(N)c1-c1ccc(Cl)cc1 [pyrimethamine] | No increase in labile heme concentration | – | – | – | – | –
CCN(CC)CCCC(C)Nc1ccnc2cc(Cl)ccc12 (stereo not drawn) [chloroquine] | – | +0.86 µM | ~2.8 | ~7 | 10.3 to 11.3 | 8.2 to 9.7
